Article PMC12313567 (Frontiers in Cellular and Infection Microbiology, 2025)

Columns and labels:
E. faecalis = assay: Antimicrobial test, broth microdilution MIC; type: cell-based, Enterococcus faecalis (ATCC 29212); conditions: Enterococcus faecalis, 24 hours, read-out: Minimum inhibitory concentration, E. faecalis
Description: (§1) This study used standard strains of bacteria known to be resistant to antibiotics. These isolates were identified as three gram-positive bacteria: Bacillus subtilis, Staphylococcus aureus (ATCC 29213) and Enterococcus faecalis (ATCC 29212); and two Gram-negative bacteria: Escherichia coli (ATCC 25922) and Pseudomonas aeruginosa (ATCC 27853). The strains were grown in blood medium one night before the broth microdilution method was used. They were then passaged and stored in tryptic soy broth (TSB) at -20°C for repeat experiments. Bacterial strains were passaged in blood medium and incubated in an oven at 35 ± 2°C for 18–24 hours. At least 3–5 similar colonies were selected from the culture plate. These were picked up with a loop and transferred to 4–5 mL of liquid medium (e.g. tryptic soy broth). The broth was incubated at 35°C until the turbidity reached McFarland 0.5 (approximately 2–6 hours). The density of the culture in the broth was determined by preparing a bacterial solution with a McFarland density of 0.5. The microdilution method was used to determine MIC values. Standards were dissolved in DMSO. Positive controls were prepared with penicillin, fluconazole and gentamicin.
(§2) It was prepared at concentrations of 1, 2, 4, 8, 16, 32, 64, 128, 256 and 512 µg/mL. 1% DMSO was used as a solvent control. Compounds were spiked at initial test control concentrations of 250 µg/mL in MHB. MHB was added to all wells except the first well. 100 µl of compounds were added to the first well. Serial dilutions were then made and diluted to the minimum concentration (1 µg/ml). Then 0.5 McFarland was prepared from bacteria incubated in MHB for 1 night. Then 50 µl of bacterial suspension was added to each well. The plates were incubated at 37°C for 24 hours. The microplates were then read in the spectrophotometer at a wavelength of 620 nm.
(§3) 100 µl of MHB was added to each well of a 12-well U-bottom microplate. 100 μL of the previously prepared NHC precursor drug was taken and transferred to the first well, and 100 μL was taken again by pipetting and transferred to the second well. In this way, dilutions were made sequentially up to the 11th well. No NHC precursor was added to the 12th well, which was used as a positive control. Then 100 μL of the prepared 5 x 10^5 CFU/mL bacterial suspension was taken and added to all wells without adding to the 11th well. The 11th well was used as a negative control ([Demirhan et al., 2024]). The same study was performed for all NHC precursors. The microplates were then incubated at 35°C for 24 hours. The lowest concentration at which no growth occurred for all strains was determined as the MIC.

P. aeruginosa = assay: Antimicrobial test, broth microdilution MIC; type: cell-based, Pseudomonas aeruginosa (ATCC 27853); conditions: Pseudomonas aeruginosa, 24 hours, read-out: Minimum inhibitory concentration, P. aeruginosa
Description: as §1, §2, §3

E. coli = assay: Antimicrobial test, broth microdilution MIC; type: cell-based, Escherichia coli (ATCC 25922); conditions: Escherichia coli, 24 hours, read-out: Minimum inhibitory concentration, E. coli
Description: as §1, §2, §3

AChE = AChE (Homo sapiens, UniProt P22303); assay: biochemical; conditions: for Ki: Lineweaver-Burk curves; for Ki / IC50: means of triplicate assays ± SEM; for AChE inhibition type: from Lineweaver-Burk curves; for IC50: 30°C
Description: Reaction mixtures contained the 50 μL of 5,5′-dithio-bis(2-nitro-benzoic)acid compound (DTNB) and 100 μL of Tris–HCl solution (1 M, pH 8.0), and 20 μL AChE solution in total volume of 1 mL. The mixture was then incubated and mixed for 15 min at 30°C. Next, The reaction was started by adding 50 μL of acetylthiocholine iodide, and carried out for 5 min at 30°C. After adding substrate, the change in absorbance at 0 and 5 minutes was recorded at 412 nm.
AChE activities were determined at 30°C by using five concentrations of acetylthiocholine iodide and three concentrations of compounds.

S. aureus = assay: Antimicrobial test, broth microdilution MIC; type: cell-based, Staphylococcus aureus (ATCC 29213); conditions: Staphylococcus aureus, 24 h, read-out: Minimum inhibitory concentration, S. aureus
Description: as §1, §2, §3

Chain of AChE (P22303 32-614): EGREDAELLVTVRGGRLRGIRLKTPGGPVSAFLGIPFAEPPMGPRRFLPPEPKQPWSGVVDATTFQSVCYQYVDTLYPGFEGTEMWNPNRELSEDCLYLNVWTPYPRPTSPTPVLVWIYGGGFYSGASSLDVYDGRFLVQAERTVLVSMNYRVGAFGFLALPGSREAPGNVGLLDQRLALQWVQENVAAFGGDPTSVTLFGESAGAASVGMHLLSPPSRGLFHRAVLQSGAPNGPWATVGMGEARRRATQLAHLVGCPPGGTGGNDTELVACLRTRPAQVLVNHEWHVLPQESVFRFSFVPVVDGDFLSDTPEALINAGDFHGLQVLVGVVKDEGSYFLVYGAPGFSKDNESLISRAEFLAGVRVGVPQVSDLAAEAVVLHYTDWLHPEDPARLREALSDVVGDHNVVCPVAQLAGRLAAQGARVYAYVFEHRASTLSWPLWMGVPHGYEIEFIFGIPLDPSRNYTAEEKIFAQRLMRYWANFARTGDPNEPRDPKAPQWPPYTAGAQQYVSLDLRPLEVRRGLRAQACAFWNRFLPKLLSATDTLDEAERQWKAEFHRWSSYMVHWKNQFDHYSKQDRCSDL

Structure (SMILES): Cl.O=Cc1ccc(-n2cc[n+](CCN3CCCC3)c2)cc1.[Cl-] [Compound 2c, 1-(4-formylphenyl)-3-(2-pyrrolidino)ethylimidazolium chloride hydrochloride]
- MIC (E. faecalis): 50 µg/mL
- MIC (P. aeruginosa): 200 µg/mL
- MIC (E. coli): 200 µg/mL
- Ki (AChE): 3160 ± 240 nM
- AChE inhibition type (AChE): Uncompetitive
- IC50 (AChE): 4130 ± 250 nM
- MIC (S. aureus): 100 µg/mL

Structure (SMILES): Br.O=Cc1ccc(-n2cc[n+](Cc3ccccn3)c2)cc1.[Br-] [Compound 2d, 1-(4-formylphenyl)-3-(pyridin-2-yl)methylimidazolium bromide hydrobromide]
- MIC (E. faecalis): 100 µg/mL
- MIC (P. aeruginosa): 200 µg/mL
- MIC (E. coli): 200 µg/mL
- Ki (AChE): 630 ± 40 nM
- AChE inhibition type (AChE): Uncompetitive
- IC50 (AChE): 820 ± 60 nM
- MIC (S. aureus): 250 µg/mL

Structure (SMILES): CC(=O)c1ccc(-n2cc[n+](CCN3CCCC3)c2)cc1.Cl.[Cl-] [Compound 1c, 1-(4-acetylphenyl)-3-(2-pyrrolidino)ethylimidazolium chloride hydrochloride]
- MIC (E. faecalis): 50 µg/mL
- MIC (P. aeruginosa): 25 µg/mL
- MIC (E. coli): 50 µg/mL
- Ki (AChE): 8050 ± 720 nM
- AChE inhibition type (AChE): Uncompetitive
- IC50 (AChE): 10500 ± 1080 nM
- MIC (S. aureus): 25 µg/mL

Structure (SMILES): CC(=O)c1ccc(-n2cc[n+](CCN3CCOCC3)c2)cc1.Cl.[Cl-] [Compound 1a, 1-(4-acetylphenyl)-3-(2-morpholino)ethylimidazolium chloride hydrochloride]
- MIC (E. faecalis): 50 µg/mL
- MIC (P. aeruginosa): 200 µg/mL
- MIC (E. coli): 200 µg/mL
- Ki (AChE): 11200 ± 1050 nM
- AChE inhibition type (AChE): Uncompetitive
- IC50 (AChE): 14800 ± 820 nM
- MIC (S. aureus): 25 µg/mL

Structure (SMILES): CC(=O)c1ccc(-n2cc[n+](CCN3CCCCC3)c2)cc1.Cl.[Cl-] [Compound 1b, 1-(4-acetylphenyl)-3-(2-piperidino)ethylimidazolium chloride hydrochloride]
- MIC (E. faecalis): 50 µg/mL
- MIC (P. aeruginosa): 200 µg/mL
- MIC (E. coli): 200 µg/mL
- Ki (AChE): 1690 ± 80 nM
- AChE inhibition type (AChE): Uncompetitive
- IC50 (AChE): 2210 ± 160 nM
- MIC (S. aureus): 12.5 µg/mL

Structure (SMILES): Br.CC(=O)c1ccc(-n2cc[n+](Cc3ccccn3)c2)cc1.[Br-] [Compound 1d, 1-(4-acetylphenyl)-3-(pyridin-2-yl)methylimidazolium bromide hydrobromide]
- MIC (E. faecalis): 10 µg/mL
- MIC (P. aeruginosa): 200 µg/mL
- MIC (E. coli): 50 µg/mL
- Ki (AChE): 800 ± 60 nM
- AChE inhibition type (AChE): Uncompetitive
- IC50 (AChE): 1050 ± 70 nM
- MIC (S. aureus): 50 µg/mL

Structure (SMILES): Cl.O=Cc1ccc(-n2cc[n+](CCN3CCCCC3)c2)cc1.[Cl-] [Compound 2b, 1-(4-formylphenyl)-3-(2-piperidino)ethylimidazolium chloride hydrochloride]
- MIC (E. faecalis): 50 µg/mL
- MIC (P. aeruginosa): 200 µg/mL
- MIC (E. coli): 100 µg/mL
- Ki (AChE): 780 ± 50 nM
- AChE inhibition type (AChE): Uncompetitive
- IC50 (AChE): 1020 ± 80 nM
- MIC (S. aureus): 250 µg/mL

Structure (SMILES): Cl.O=Cc1ccc(-n2cc[n+](CCN3CCOCC3)c2)cc1.[Cl-] [Compound 2a, 1-(4-formylphenyl)-3-(2-morpholino)ethylimidazolium chloride hydrochloride]
- MIC (E. faecalis): 250 µg/mL
- MIC (P. aeruginosa): 200 µg/mL
- MIC (E. coli): 200 µg/mL
- Ki (AChE): 660 ± 30 nM
- AChE inhibition type (AChE): Uncompetitive
- IC50 (AChE): 870 ± 60 nM
- MIC (S. aureus): 250 µg/mL
